Changes are numbered by the printed parent chain. Names and notes keep the numbering of the source. Values joined by “and” are separate entries in the source; they are usually repeats but may differ in a detail not shown here. Equal entries are not always repeated. Where two headings read alike, the source gives them in different places.
Tests used:
[1] = molecular target: T1, Pnc1 (Saccharomyces cerevisiae, UniProt P53184); test: Pnc1 competitive inhibition; type: biochemical, S. cerevisiae; conditions: for inhibition pattern: double-reciprocal analysis versus nicotinamide
[2] = molecular target: T1, Pnc1; type: biochemical, S. cerevisiae
[3] = molecular target: T1, Pnc1; test: 15N kinetic isotope effect with substrates; type: biochemical, S. cerevisiae
[4] = molecular target: T1, Pnc1; test: 13C kinetic isotope effect with substrates; type: biochemical, S. cerevisiae
[5] = test system: nicotinamidase from M. lysodeikticus; conditions: cited from earlier work
[6] = test system: nicotinamidase from S. cerevisiae; conditions: cited from earlier work
[7] = molecular target: T1, Pnc1; test: HPLC assay of substrate activity; type: biochemical, S. cerevisiae; conditions: for kcat: HPLC assay, no activity above detection limit of 10^−5 s^−1
[8] = molecular target: nicotinamidase from M. lysodeikticus; conditions: cited from earlier work; remark: listed apart in the source
[9] = molecular target: nicotinamidase from Tortula cremoris; conditions: cited from earlier work
[10] = molecular target: nicotinamidase from Fleischmann’s yeast; conditions: cited from earlier work
[11] = molecular target: T1, Pnc1; test: Effect of EDTA or ZnCl2 on Pnc1 activity; type: biochemical, S. cerevisiae; conditions: data not shown
[12] = test system: nicotinamidase from M. tuberculosis; conditions: cited from earlier work
[13] = molecular target: T1, Pnc1; test: Product inhibition by ammonium ion, HPLC assay; type: biochemical, S. cerevisiae; conditions: for inhibition pattern: versus nicotinamide, data not shown
[14] = molecular target: T1, Pnc1; conditions: 100 mM ammonium chloride and 5 mM nicotinic acid, 5 µM Pnc1, 150 minutes, pH 7.5; no nicotinamide detected
[15] = test system: S. cerevisiae Pnc1; conditions: cited from earlier work
[16] = molecular target: T1, Pnc1; test: Dependence of kcat on pH; type: biochemical, S. cerevisiae; conditions: pH 4.5 to 10.5
[17] = 25 °C in 0.1 N NaOH; cited from earlier work
[18] = test system: yeast nicotinamidases; conditions: previous reports; cited from earlier work
[19] = molecular target: nicotinamidase from Mycobacterium tuberculosis; conditions: cited from earlier work
[20] = test system: Pnc1 WT or mutant; test: Steady-state kinetic parameters of Pnc1 mutants, enzyme-coupled assay; type: biochemical, S. cerevisiae; conditions: substrate nicotinamide; for kcat: pH 7.5
[21] = test system: Pnc1 WT or mutant; test: 15N kinetic isotope effect of Pnc1 mutants; type: biochemical, S. cerevisiae; conditions: substrate nicotinamide
[22] = test system: Pnc1 WT or mutant; test: 13C kinetic isotope effect of Pnc1 mutants; type: biochemical, S. cerevisiae; conditions: substrate nicotinamide
[23] = substrate: Cc1cncc(C(N)=O)c1; type: biochemical, S. cerevisiae; conditions: other: substrate of Pnc1, pH 7.5, 25.0 °C
[24] = substrate: NC(=O)c1ccccc1; type: biochemical, S. cerevisiae; conditions: other: substrate of Pnc1, pH 7.5, 25.0 °C
[25] = substrate: NC(=O)c1cccnc1; type: biochemical, S. cerevisiae; conditions: other: substrate of Pnc1, pH 7.5, 25.0 °C
[26] = substrate: NC(=O)c1cnccn1; type: biochemical, S. cerevisiae; conditions: other: substrate of Pnc1, pH 7.5, 25.0 °C
[27] = substrate: NC(=S)c1cccnc1; type: biochemical, S. cerevisiae; conditions: other: substrate of Pnc1, pH 7.5, 25.0 °C

With O=C(O)c1cnccn1 [pyrazinoic acid] the Ki [1] was 6700 ± 1700 µM, the “fold higher Ki value compared to nicotinic acid” value [1] was 56 fold and the inhibition pattern [1] was “competitive inhibition patterns”.

For Cc1cncc(C(N)=O)c1 [5-methylnicotinamide], the “fold higher Km compared to nicotinamide” value [2] was 6 fold, the “15N KIE” value ([3]; on V/K, pH 7.5) was 1.0151 ± 0.0009 and the “13C KIE” value ([4]; on V/K, pH 7.5) was 1.0269 ± 0.0037. For the same molecule, the Km [5] was 360 µM.

For C[n+]1cccc(C(N)=O)c1 [1-methylnicotinamide], the “fold decreased kcat/Km compared to nicotinamide” value [2] is listed as 8400 fold and the substrate activity ([6]; S. cerevisiae Pnc1, French et al.) is listed as “no activity”.

In the case of NC(=O)c1ccc[n+]([C@@H]2O[C@H](COP(=O)([O-])O)[C@@H](O)[C@H]2O)c1 [nicotinamide mononucleotide (NMN^+), nicotinamide mononucleotide], the substrate activity [7] is reported as “not substrates” and the kcat [7] is reported as < 10^−5 ^c s^−1.

For CC(=O)c1cccnc1 [3-acetylpyridine], the Ki [1] is listed as 316 ± 101 µM, the inhibition pattern [1] is listed as “competitive inhibition” and the Ki [8] is listed as 160 µM. The Ki [9] was 305 µM and the Ki [10] was 65 µM.

For O=C(O)CN(CCN(CC(=O)O)CC(=O)O)CC(=O)O [EDTA, ethylenediaminetetraacetic acid], the “inhibition of Pnc1” value ([11]; 10 mM) was “did not inhibit”.

In the case of NC(=O)c1cnccn1 [pyrazinamide], the “fold decreased kcat/Km compared to nicotinamide” value [2] is reported as 4.5 fold, the “fold faster kcat compared to nicotinamide” value [2] is reported as 3.7 fold and the “fold higher Km compared to nicotinamide” value [2] is reported as 16 fold. The “15N KIE” value ([3]; as percent) was 2.3%, the “15N KIE” value ([3]; on V/K, pH 7.5) was 1.0231 ± 0.0007 and the “13C KIE” value ([4]; as percent) was 2.0%. For the same molecule, the “13C KIE” value ([4]; on V/K, pH 7.5) was 1.0196 ± 0.0023, the Km [6] was 200 µM and the Km [12] was 300 µM.

For NC(=S)c1cccnc1 [thionicotinamide], the “increase in 15N KIE value compared to nicotinamide” value [3] was 1.4% and the “15N KIE” value ([3]; on V/K, pH 7.5) was 1.0262 ± 0.0019.

In the case of Cl.N [ammonium chloride], the “concentration required for inhibition” value [13] is reported as “greater than 10 mM”, the inhibition pattern [13] is reported as “non-competitive inhibition” and the inhibition pattern ([13]; listed as ammonium ion) is reported as “non-competitive inhibition patterns”.

With O=C(O)c1cccnc1 [nicotinic acid] the Ki [1] was 120 ± 19 µM, the inhibition pattern [1] was “competitive inhibition patterns” and the “reverse reaction rate (upper estimate)” value [14] was < 10^−5 s^−1. The inhibition ([15]; French et al.) was “no inhibition”.

With NC(=O)c1cccnc1 [nicotinamide] the kcat ([2]; substrate of Pnc1, pH 7.5) was 0.69 s⁻¹, the “15N KIE” value ([3]; as percent) was ~ 1.2% and 1.2% and the “15N KIE” value ([3]; on V/K, pH 7.5) was 1.0122 ± 0.0002. The “13C KIE” value ([4]; as percent) was ~ 1.2%, the “13C KIE” value ([4]; on V/K, pH 7.5) was 1.0125 ± 0.0004 and the “critical ionizations in kcat pH profile” value [16] was “no critical ionizations”. The “variation of kcat between the pH extremes” value [16] was 4 fold, the “pseudo-first-order rate of hydrolysis in basic solutions” value [17] was 0.0301 h⁻¹ and the Km [18] was 6 to 10 µM.

In the case of NC(=O)C1=CN([C@@H]2O[C@H](COP(=O)(O)OP(=O)(O)OC[C@H]3O[C@@H](n4cnc5c(N)ncnc54)[C@H](O)[C@@H]3O)[C@@H](O)[C@H]2O)C=CC1 [β-nicotinamide adenine dinucleotide], the substrate activity [7] is reported as “not substrates”, the kcat [7] is reported as < 10^−5 ^c s^−1 and the kcat ([7]; listed as NAD^+) is reported as < 10^−5 s^−1.

With [Cl-].[Cl-].[Zn+2] [ZnCl2] the “effect on activity of wild type Pnc1” value ([11]; 2 mM) was “failed to increase activity”.

In the case of O=Cc1cccnc1 [nicotinaldehyde], the Ki [1] is listed as 0.94 ± 0.35 µM, the “Ki fold below the Km value of nicotinamide” value ([1]; vs Km 9.6 µM for nicotinamide) is listed as 10 fold and the Ki [8] is listed as 0.018 µM. For the same molecule, the Ki [15] was 1.4 µM and the Ki [19] was 0.29 µM.

For O=Cc1ccccc1 [benzaldehyde], the Ki [1] is listed as 20600 ± 5700 µM, the “fold less potent inhibitor compared to nicotinaldehyde” value [1] is listed as 22,000 fold and the Ki [8] is listed as 1800 µM.

B1: Pnc1 (Saccharomyces cerevisiae S288C) (protein)
chain: MKTLIVVDMQNDFISPLGSLTVPKGEELINPISDLMQDADRDWHRIVVTRDWHPSRHISFAKNHKDKEPYSTYTYHSPRPGDDSTQEGILWPVHCVKNTWGSQLVDQIMDQVVTKHIKIVDKGFLTDREYYSAFHDIWNFHKTDMNKYLEKHHTDEVYIVGVALEYCVKATAISAAELGYKTTVLLDYTRPISDDPEVINKVKEELKAHNINVVDK
For B1, the kcat [20] was 0.69 ± 0.04 s⁻¹, the “15N KIE” value ([21]; as percent) was ~ 1.25% and the “15N KIE” value ([21]; pH 7.5) was 1.0122 ± 0.0002. For the same molecule, the “13C KIE” value ([22]; as percent) was ~ 1.25%, the “13C KIE” value ([22]; pH 7.5) was 1.0125 ± 0.0004 and the Km [23] was 61 ± 6 µM. It also gave a kcat [23] of 1.75 ± 0.05 s⁻¹, a kcat/Km [23] of 29000 ± 2000 M⁻¹ s⁻¹ and a Km [24] of 25 ± 7 µM. The kcat [24] was 0.0088 ± 0.0004 s⁻¹, the kcat/Km [24] was 350 ± 90 M⁻¹ s⁻¹ and the Km [25] was 9.6 ± 2.1 µM. It also gave a kcat [25] of 0.69 ± 0.04 s⁻¹, a kcat/Km [25] of 72000 ± 12000 M⁻¹ s⁻¹ and a Km [26] of 157 ± 16 µM. For the same molecule, the kcat [26] was 2.56 ± 0.1 s⁻¹, the kcat/Km [26] was 16000 ± 1000 M⁻¹ s⁻¹ and the kcat/Km [27] was 50 ± 17 M⁻¹ s⁻¹.

B2: H53A (protein, UniProt P53184 1-216, looked up, variant H53A)
Nicotinamidase: B1 chain with H53A
For B2, the kcat [20] was 0.014 ± 0.002 s⁻¹.

B3: D8N (protein, UniProt P53184 1-216, looked up, variant D8N)
Nicotinamidase: B1 chain with D8N
In the case of B3, the “fold lower kcat compared to Pnc1 WT” value [20] is reported as 1150 fold and the kcat [20] is reported as 0.0006 ± 0.0001 s⁻¹.

B4: D8E (protein, UniProt P53184 1-216, looked up, variant D8E)
Nicotinamidase: B1 chain with D8E
For B4, the “fold lower kcat compared to Pnc1 WT” value [20] was 100 fold, the kcat [20] was 0.0070 ± 0.0001 s⁻¹ and the “15N KIE” value ([21]; pH 7.5) was 1.0218 ± 0.0015. The “13C KIE” value ([22]; pH 7.5) was 1.0258 ± 0.0012.

B5: D51A (protein, UniProt P53184 1-216, looked up, variant D51A)
Nicotinamidase: B1 chain with D51A
In the case of B5, the kcat [20] is reported as 0.020 ± 0.005 s⁻¹, the “15N KIE” value ([21]; pH 7.5) is reported as 1.0166 ± 0.0018 and the “13C KIE” value ([22]; pH 7.5) is reported as 1.0075 ± 0.0015.

B6: D51N (protein, UniProt P53184 1-216, looked up, variant D51N)
Nicotinamidase: B1 chain with D51N
With B6 the “fold more active than the D51A mutant” value [20] was 3 fold, the kcat [20] was 0.064 ± 0.012 s⁻¹ and the “15N KIE” value ([21]; as percent) was ~ 0.5%. The “15N KIE” value ([21]; pH 7.5) was 1.0047 ± 0.0006, the “13C KIE” value ([22]; as percent) was ~ 0.5% and the “13C KIE” value ([22]; pH 7.5) was 1.0058 ± 0.0006.

B7: H94A (protein, UniProt P53184 1-216, looked up, variant H94A)
Nicotinamidase: B1 chain with H94A
With B7 the kcat [20] was 0.020 ± 0.002 s⁻¹.

B8: D8A (protein, UniProt P53184 1-216, looked up, variant D8A)
Nicotinamidase: B1 chain with D8A
In the case of B8, the “fold lower kcat compared to Pnc1 WT” value [20] is reported as 767 fold and the kcat [20] is reported as 0.0009 ± 0.0001 s⁻¹.

B9: K122A (protein, UniProt P53184 1-216, looked up, variant K122A)
Nicotinamidase: B1 chain with K122A
For B9, the “fold lower kcat compared to Pnc1 WT” value [20] was 16 fold and the kcat [20] was 0.044 ± 0.023 s⁻¹.
